Columns and labels:
[1] = system: xenograft of human lung cancer NCI-H522 in nude mice; experiment: Xenograft tumor growth inhibition, NCI-H522; format: in vivo, BALB/c nude mice; conditions: iv., q4d × 6
Protocol: (§1) The embodiment compound was prepared as a 40× stock solution of DMSO and diluted to the administered concentration with saline containing 2.5% Tween 80 (Tween 80) used before;
(§2) Male BALB/c nude mice, 4-5 weeks old, were purchased from Beijing Vital River Laboratory Animal Technology Co., Ltd, with a license No. SCXK(Beijing)2012-0001, and the mice were bred in the SPF-class laboratory animal center of Tsinghua University. The tumor lines used in the experiment were: xenograft of human lung cancer NCI-H522 in nude mice, xenograft of human colon cancer HCT-116 in nude mice.
(§3) Tumor-bearing animals with good tumor growth and overall condition were selected and sacrificed by cervical dislocation. The tumors were removed under aseptic condition, cut into tumors with 2-3 mm diameter by a scalpel, and inoculated subcutaneously behind the armpit of nude mice by trocar. The tumors grew naturally and were randomly grouped after the tumor volume grew to 105 mm^3, and the administration date of grouping was set as D0 (Day 0).
(§4) Grouping experiment, with 7-9 animals in each group, starting from now on, administration was started according to the weight of the animals. During the administration process, the long, short diameter of the tumors and weight of animals were measured every 2-3 days, and the tumor size was calculated by the formula: (½)×long diameter×(short diameter)^2, and the experiment was ended on the 27th day (D27) after grouping. At the end of the experiment, the animals were sacrificed by cervical dislocation, the tumors were peeled off and weighed, and the inhibitory rates of the drugs on tumor growth were calculated. Tumor volume (TV) and relative tumor volume (RTV) were calculated. T test was used to compare the statistical significance of the differences in tumor weight, tumor volume and RTV of the animals in each group.
(§5) Calculation formulas are as follows: average tumor weight in the vehicle control group−average tumor weight in the treatment group Tumor inhibition rate (%)=(average tumor weight in the vehicle control group−average tumor weight in the treatment group)[…](average tumor weight in the vehicle control)×100. Tumor volume (TV)=(length×width^2)/2. Relative tumor volume (RTV)=Vt/Vo (wherein, Vo is the TV measured at the time of grouping and administration, and Vt is the TV at each subsequent measurement).
(§6) [formula] • Efficacy evaluation criteria: T/C (%)>40 is invalid; • T/C (%)≤40, and P<0.05 is effective after statistical processing. 4.

[2] = system: xenograft of human colon cancer HCT-116 in nude mice; experiment: Xenograft tumor growth inhibition, HCT-116; format: in vivo, BALB/c nude mice; conditions: for Relative tumor proliferation rate (%) / Tumor weight inhibition rate (%): HCT116 xenograft; for efficacy evaluation on growth of HCT-116 xenograft (in words): criteria: T/C (%)≤40 and P<0.05 is effective
Protocol: as §1, §2, §3, §4, §5, §6

[3] = system: breast cancer cell line SUM159 sphere; experiment: Breast cancer stem cell sphere formation; format: cell-based, human; conditions: 50 nM; for formation of the sphere after cell passage: 5 days of drug treatment, then passage
Protocol: The inhibitory effects of embodiment compounds 5, 7, 11, 13, 14, 20 and 21 on the formation of breast cancer cell line SUM159 sphere are described as follows.
The breast cancer cell line SUM159 sphere was cultured with serum-free medium in an ultra-low adsorption plate, the basal medium was DMEM/F12 (without phenol red), and B27 (without vitamin A) (1×), EGF (20 ng/ml), bFGF (20 ng/ml) and insulin (insulin, 5 ug/ml) were added.
An equal number (4000) of SUM159 cells per well were inoculated into an ultra-low adsorption 24 plate, and the sphere was photographed after 5 days of culture, replaced with fresh medium, and treated with drugs at certain concentrations, respectively. Compounds 5, 7, 11, 13, 14, 20 and 21 were evaluated in this experiment at 50 nM, respectively. The effect of the drug on the sphere phenotype could be observed after about 3 days of drug treatment. The sphere was photographed again after 5 days of drug treatment, and then the sphere was passaged. The sphere was photographed again after 7 days of passage.
The differences of the photographs taken in three different stages were counted and compared, and the killing effect of the tested compounds on SUM159 sphere was evaluated through the differences of sphere formation after passage, thus reflecting the inhibitory effects of different compounds on breast cancer stem cells.

[4] = 20 mg/kg, intravenous injection every other day × 3
[5] = 16 mg/kg, intravenous injection every other day × 9
[6] = 20 mg/kg, intravenous injection every other day × 9

| SMILES | T/C (%) ([1]; 12.5 mg/kg) | Tumor weight inhibition (%) ([1]; 12.5 mg/kg) | T/C (%) ([1]; 25 mg/kg) | Tumor weight inhibition (%) ([1]; 25 mg/kg) | T/C (%) ([1]; 50 mg/kg) | Tumor weight inhibition (%) ([1]; 50 mg/kg) | Relative tumor proliferation rate (%) [2, 4] [%] | Tumor weight inhibition rate (%) [2, 4] [%] | efficacy evaluation on growth of HCT-116 xenograft (in words) [2] | killing effect on SUM159 sphere [3] | formation of the sphere after cell passage [3] | Relative tumor proliferation rate (%) [2, 5] [%] | Tumor weight inhibition rate (%) [2, 5] [%] | Relative tumor proliferation rate (%) [2, 6] [%] | Tumor weight inhibition rate (%) [2, 6] [%] |
| --- | --- | --- | --- | --- | --- | --- | --- | --- | --- | --- | --- | --- | --- | --- | --- |
| [2H]C([2H])([2H])Oc1cc(C(=O)Nc2cc3c(cc2Oc2cc(C)cc(C)c2)C(=O)N[C@@H](CC(=O)N(C([2H])([2H])C([2H])([2H])[2H])C([2H])([2H])C([2H])([2H])[2H])C(=O)N3)c(Br)c(OC([2H])([2H])[2H])c1OC([2H])([2H])[2H] [Compound 5, (S)-2-bromo-N-[3-[2-[bis(pentadeuteroethyl)amino]-2-oxoethyl]-7-(3,5-dimethylphenoxy)-2,5-dioxo-2,3,4,5-tetrahydro-1H-benzo[e][1,4]diazepin-8-yl]-3,4,5-tris(trideuteromethoxy)benzamide] | 31.7 | 72.03 | 21.2 | 84.20 | 14.2 | 90.02 | 34 | 69.6 | inhibit the growth | strong killing effect | significantly reduced |  |  |  |  |
| [2H]C([2H])([2H])Oc1cc(C(=O)Nc2cc3c(cc2Oc2cc(C)cc(C)c2)C(=O)N(C)[C@@H](CC(=O)N(C)C)C(=O)N3)c(Br)c(OC([2H])([2H])[2H])c1OC([2H])([2H])[2H] [Compound 16, (S)-2-bromo-N-[3-[2-(dimethylamino)-2-oxoethyl]-7-(3,5-dimethylphenoxy)-4-methyl-2,5-dioxo-2,3,4,5-tetrahydro-1H-benzo[e][1,4]diazepin-8-yl]-3,4,5-tris(trideuteromethoxy)benzamide] |  |  |  |  |  |  |  |  | inhibit the growth |  |  | 38 | 63.4 |  |  |
| [2H]C([2H])([2H])Oc1cc(C(=O)Nc2cc3c(cc2Oc2cc(C)cc(C)c2)C(=O)N[C@@H](CC(=O)N(C)C)C(=O)N3)c(Br)c(OC([2H])([2H])[2H])c1OC([2H])([2H])[2H] [Compound 20, (S)-2-bromo-N-[3-[2-(dimethylamino)-2-oxoethyl]-7-(3,5-dimethylphenoxy)-2,5-dioxo-2,3,4,5-tetrahydro-1H-benzo[e][1,4]diazepin-8-yl]-3,4,5-tris(trideuteromethoxy)benzamide] |  |  |  |  |  |  |  |  | inhibit the growth | strong killing effect | significantly reduced |  |  | 30 | 75.4 |
